Test results reported in US7074824B2, “Pharmaceutical compositions containing beta-lapachone, or derivatives or analogs thereof, and methods of using same” (Arqule, Inc., priority 2001, dated 2006).
≈ marks a conversion by molar mass, not a printed value. Like-named read-outs stand apart in the source and are kept apart here.

How the values were obtained:
A2780CP = assay: MTS growth inhibition assay; assay type: cell-based, human; details: A2780CP (resistant) ovarian, read-out: Growth inhibitory activity (50% effective concentration, IC50)
Protocol: (§1) A2780 and A2780/CP (ovarian); MCF-7 (breast); HT-29 (colon); BxPC-3 (pancreas); and A549 (lung). The human tumor cell lines (purchased from ATCC, Rockville, Md.) were cultured at 37° C. […] Nova Tech, Grand Island, N.Y.) containing 10% fetal bovine serum (FBS, Nova Tech). Aliquots of cells were seeded into each well of 96-well microtiter plates at a final concentration of 10^4 cells/well and incubated for 24 h prior to exposure to test compounds. […] The MTS assay is a colorimetric assay based upon the ability of viable cells to convert MTS, a novel tetrazolium compound and electron-coupling reagent, to a colored formazan product that is soluble in cell culture medium. The cell concentration is then determined by measuring the absorbance of the formazan product at 490 nm. Growth inhibition, expressed as IC50, is calculated relative to vehicle-treated control cells.

A2780 = assay: MTS growth inhibition assay; assay type: cell-based, human; details: A2780 (sensitive) ovarian, read-out: Growth inhibitory activity (50% effective concentration, IC50)
Protocol: as §1

A549 = assay: MTS growth inhibition assay; assay type: cell-based, human; details: A549 lung, read-out: Growth inhibitory activity (50% effective concentration, IC50)
Protocol: as §1

BxPC-3 = assay: MTS growth inhibition assay; assay type: cell-based, human; details: BxPC-3 pancreas, read-out: Growth inhibitory activity (50% effective concentration, IC50)
Protocol: as §1

HT-29 = assay: MTS growth inhibition assay; assay type: cell-based, human; details: HT-29 colon, read-out: Growth inhibitory activity (50% effective concentration, IC50)
Protocol: as §1

MCF-7 = assay: MTS growth inhibition assay; assay type: cell-based, human; details: MCF-7 breast, read-out: Growth inhibitory activity (50% effective concentration, IC50)
Protocol: as §1

[1] = system: six human cancer cells lines; assay: MTS growth inhibition assay, summary over all lines; assay type: cell-based; details: all six tumor cell lines; tested up to 20 μM
Protocol: A2780 and A2780/CP (ovarian); MCF-7 (breast); HT-29 (colon); BxPC-3 (pancreas); and A549 (lung). The human tumor cell lines (purchased from ATCC, Rockville, Md.) were cultured at 37° C. (5% CO2) in RPMI medium (RPMI; Nova Tech, Grand Island, N.Y.) containing 10% fetal bovine serum (FBS, Nova Tech). Aliquots of cells were seeded into each well of 96-well microtiter plates at a final concentration of 10^4 cells/well and incubated for 24 h prior to exposure to test compounds. […] The MTS assay is a colorimetric assay based upon the ability of viable cells to convert MTS, a novel tetrazolium compound and electron-coupling reagent, to a colored formazan product that is soluble in cell culture medium. The cell concentration is then determined by measuring the absorbance of the formazan product at 490 nm. Growth inhibition, expressed as IC50, is calculated relative to vehicle-treated control cells.

[2] = Solubility in water and in 40% (w/v) HPBCD solution by UV absorbance; assay type: physicochemical
Protocol: To determine solubilities, test compounds were first dissolved in ethanol to prepare standard solutions with concentrations in the range 2.5–10 mg/ml, then were diluted with to 10 μg/ml with water. UV scans were obtained of the 10 μg/ml standard solutions, and the wavelength of maximum absorbance and the absorbance at the maximum absorbance wavelength were determined. For each test compound 50 μl aliquots of water and of 40% HPBCD were added to individual Eppendorf tubes containing approximately 1 mg of compound each. The tubes were heated in a 30° C. waterbath, vortexed, then centrifuged at 15,000 rpm for 5 min. This step was repeated, then the tubes were cooled to room temperature for 1 hour, then were centrifuged again. The supernatant from each tube was diluted with water into the appropriate absorbance range, and the UV absorbance was measured at the compound's absorbance maximum wavelength. The concentrations of these saturated solutions were then calculated by ratio to the 10 μg/ml ethanolic standard solutions.

[3] = Exp 2, 4 h treatment + 24 h drug-free
[4] = Exp 3, 4 h treatment + 24 h drug-free
[5] = 40% (w/v) HPBCD, room temperature, saturated solution
[6] = water, room temperature, saturated solution
[7] = Exp 1, 4 h treatment + 24 h drug-free

| Compound | IC50 (A2780CP; Exp 2) [µM] | IC50 (A2780CP; Exp 3) [µM] | IC50 (A2780CP; Mean ± SE of 3 experiments) [µM] | IC50 (A2780; [3]) [µM] | IC50 (A2780; [4]) [µM] | IC50 (A2780; Mean ± SE of 3 experiments) [µM] | IC50 (A549; Exp 2) [µM] | IC50 (A549; Exp 3) [µM] | IC50 (A549; Mean ± SE of 3 experiments) [µM] | IC50 (BxPC-3; Exp 2) [µM] | IC50 (BxPC-3; Exp 3) [µM] | IC50 (BxPC-3; Mean ± SE of 3 experiments) [µM] | IC50 (HT-29; Exp 2) [µM] | IC50 (HT-29; Exp 3) [µM] | IC50 (HT-29; Mean ± SE of 3 experiments) [µM] | IC50 (MCF-7; Exp 2) [µM] | IC50 (MCF-7; Exp 3) [µM] | Solubility Enhancement [2] | Solubility in HPBCD Solution [2] [µg/mL] | Solubility in Water [2] [µg/mL] | also measured |
| --- | --- | --- | --- | --- | --- | --- | --- | --- | --- | --- | --- | --- | --- | --- | --- | --- | --- | --- | --- | --- | --- |
| CCCCCC(=O)OC1=CC(=O)C(=O)c2ccccc21 [CO-507, 4-hexanoyloxy-1,2-naphthoquinone] | > 20 | > 20 | > 20 | > 20 | > 20 | > 20 | > 20 | > 20 | > 20 | > 20 | > 20 | > 20 | > 20 | > 20 | > 20 | > 20 | > 20 | – | – | – | IC50 (A2780CP; Homo sapiens, A2780C/P, Exp 1): > 20 µM; IC50 (A2780; Homo sapiens, Exp 1, 4 h treatment + 24 h drug-free): > 20 µM; IC50 (A549; Homo sapiens, Exp 1): > 20 µM; IC50 (BxPC-3; Homo sapiens, Exp 1): > 20 µM; IC50 (HT-29; Homo sapiens, Exp 1): > 20 µM; IC50 (MCF-7; Homo sapiens, MCF7, Exp 1): > 20 µM; IC50 (MCF-7; Mean ± SE of 3 experiments): > 20 µM; growth inhibitory activity, verbal summary [1]: inactive |
| CC(=O)OC1CC(C)(C)OC2=C1C(=O)C(=O)c1ccccc12 (stereo not drawn) [CO-504, 4-acetoxy β-lapachone] | 4 | 2.56 | 2.41 ± 0.96 | 1.6 | 1.19 | 1.54 ± 0.19 | 6.87 | 3.75 | 9.97 ± 4.74 | 13.5 | 2.32 | 8.74 ± 3.33 | 6.67 | 3.98 | 8.25 ± 3.03 | 4.78 | 4.28 | – | – | – | Solubility in HPBCD Solution [2, 5]: 2100 µg/mL (≈ 6.99 mM); Solubility Enhancement ([2]; 40% HPBCD versus water): 7.4 −Fold; Solubility in Water [2, 6]: 284 µg/mL (≈ 0.946 mM); IC50 (A2780CP; Exp 1): 0.678 µM; IC50 (A2780; [7]): 1.83 µM; IC50 (A549; Exp 1): 19.3 µM; IC50 (BxPC-3; Exp 1): 10.5 µM; IC50 (HT-29; Exp 1): 14.1 µM; IC50 (MCF-7; Exp 1): 2.59 µM; IC50 (MCF-7; Mean ± SE of 3 experiments): 3.88 ± 0.67 µM; growth inhibitory activity, verbal summary [1]: very similar to CO-501 in inhibitory activity |
| CC1(C)C=CC2=C(O1)c1ccccc1C(=O)C2=O [3,4-dehydro-βL] | – | – | – | – | – | – | – | – | – | – | – | – | – | – | – | – | – | 240 −Fold | 5800 (≈ 24.1 mM) | 24 (≈ 0.0999 mM) | – |
| CC(C)=CCC1CC2=C(OC1(C)C)c1ccccc1C(=O)C2=O (centres unmarked) [3-(3-methyl-2-butenyl)-βL] | – | – | – | – | – | – | – | – | – | – | – | – | – | – | – | – | – | 61 −Fold | 4100 (≈ 13.2 mM) | 67 (≈ 0.216 mM) | – |
| CC1(C)OC2=C(CC1O)C(=O)C(=O)c1ccccc12 (centres unmarked) [Compound 3-Hydroxy-βL, 3-Hydroxy-βL] | – | – | – | – | – | – | – | – | – | – | – | – | – | – | – | – | – | 10.6 −Fold | 14600 (≈ 56.5 mM) | 1381 (≈ 5.35 mM) | – |
| CC1OC2=C(C(=O)C(=O)c3ccccc32)C1(C)C (centres unmarked) [Dunnione] | – | – | – | – | – | – | – | – | – | – | – | – | – | – | – | – | – | 36 −Fold | 17000 (≈ 70.2 mM) | 476 (≈ 1.96 mM) | – |
| CC1(C)CC(=O)C2=C(O1)c1ccccc1C(=O)C2=O [CO-505] | > 20 | > 20 | > 20 | > 20 | > 20 | > 20 | > 20 | > 20 | > 20 | > 20 | > 20 | > 20 | > 20 | > 20 | > 20 | > 20 | > 20 | – | – | – | IC50 (A2780CP; Exp 1): > 20 µM; IC50 (A2780; [7]): > 20 µM; IC50 (A549; Exp 1): > 20 µM; IC50 (BxPC-3; Exp 1): > 20 µM; IC50 (HT-29; Exp 1): > 20 µM; IC50 (MCF-7; Exp 1): > 20 µM; IC50 (MCF-7; Mean ± SE of 3 experiments): > 20 µM; growth inhibitory activity, verbal summary [1]: inactive |
| CC1(C)OC2=C(CC1Br)C(=O)C(=O)c1ccccc12 (centres unmarked) [Compound 3-Bromo-βL, 3-Bromo-βL] | – | – | – | – | – | – | – | – | – | – | – | – | – | – | – | – | – | 191 −Fold | 6900 (≈ 21.5 mM) | 36 (≈ 0.112 mM) | – |
| CC1(C)CC(O)C2=C(O1)c1ccccc1C(=O)C2=O (stereo not drawn) [CO-503, 4-hydroxy β-lapachone] | 9.38 | 14.8 | 10.5 ± 2.2 | 5.29 | 4.86 | 4.16 ± 0.92 | 7.63 | 9.77 | 10.6 ± 1.98 | > 20 | > 20 | > 20 | 11 | 12.1 | 12.1 ± 0.63 | 19.4 | 19.3 | – | – | – | Solubility in HPBCD Solution [2, 5]: 3100 µg/mL (≈ 12 mM); Solubility Enhancement ([2]; 40% HPBCD versus water): 8.0 −Fold; Solubility in Water [2, 6]: 381 µg/mL (≈ 1.48 mM); IC50 (A2780CP; Exp 1): 7.42 µM; IC50 (A2780; [7]): 2.35 µM; IC50 (A549; Exp 1): 14.3 µM; IC50 (BxPC-3; Exp 1): > 20 µM; IC50 (HT-29; Exp 1): 13.2 µM; IC50 (MCF-7; Exp 1): 18.8 µM; IC50 (MCF-7; Mean ± SE of 3 experiments): 19.2 ± 0.17 µM; growth inhibitory activity, verbal summary [1]: significantly less active across all cell lines |
| CC1(C)CC(=O)C2=C(O1)c1ccccc1C(=O)C2=O [Compound 4-keto-βL, 4-keto-βL] | – | – | – | – | – | – | – | – | – | – | – | – | – | – | – | – | – | 8.7 −Fold | 4400 (≈ 17.2 mM) | 503 (≈ 1.96 mM) | – |
| CC1OC2=C(C(=O)C(=O)c3ccccc32)C1(C)C (centres unmarked) [CO-506] | 3.85 | 1.53 | 2.7 ± 0.67 | 4.79 | 3.23 | 3.5 ± 0.68 | 12.7 | 15.3 | 11.8 ± 2.28 | 8.4 | 9.22 | 7.77 ± 1.07 | 13.4 | 11.2 | 14 ± 1.78 | 3.99 | 3.53 | – | – | – | IC50 (A2780CP; Exp 1): 2.73 µM; IC50 (A2780; [7]): 2.47 µM; IC50 (A549; Exp 1): 7.5 µM; IC50 (BxPC-3; Exp 1): 5.69 µM; IC50 (HT-29; Exp 1): 17.3 µM; IC50 (MCF-7; Exp 1): 2.64 µM; IC50 (MCF-7; Mean ± SE of 3 experiments): 3.39 ± 0.4 µM; growth inhibitory activity, verbal summary [1]: activity profile similar to CO-501 |
